From patent US6444613B1, “Defoliant” (Hoechst Schering AgrEvo GmbH, priority 1999, dated 2002)

Tested on: cotton plants
Test: Action as defoliant: leaf abscission of cotton plants after spray application
Format: in vivo

pyraflufen-ethyl
Effect in % (leaf abscission) (Table 2 pyraflufen-ethyl trial, dose 1 g/ha, 3 days): 0%
Effect in % (leaf abscission) (Table 2 pyraflufen-ethyl trial, dose 1 g/ha, 5 days): 0%
Effect in % (leaf abscission) (Table 2 pyraflufen-ethyl trial, dose 2 g/ha, 3 days): 0%
Effect in % (leaf abscission) (Table 2 pyraflufen-ethyl trial, dose 2 g/ha, 5 days): 0%

O=C(Nc1ccccc1)Nc1cnns1 [Thidiazuron, thidiazuron]
Effect in % (leaf abscission) (Table 1 fluthiacet-methyl trial, dose 25 g/ha, 4 days, cotton 8-10 leaf stage): 5%
Effect in % (leaf abscission) (Table 1 fluthiacet-methyl trial, dose 25 g/ha, 5 days, cotton 8-10 leaf stage): 24%
Effect in % (leaf abscission) (Table 2 pyraflufen-ethyl trial, dose 25 g/ha, 3 days): 4%
Effect in % (leaf abscission) (Table 2 pyraflufen-ethyl trial, dose 25 g/ha, 5 days): 17%
Effect in % (leaf abscission) (Table 3.1 carfentrazone-ethyl trial, dose 80 g/ha, 10 days): 0%
Effect in % (leaf abscission) (Table 3.1 carfentrazone-ethyl trial, dose 80 g/ha, 20 days): 8%
Effect in % (leaf abscission) (Table 3.2 carfentrazone-ethyl trial, dose 25 g/ha, 6 days): 29%
Effect in % (leaf abscission) (Table 3.2 carfentrazone-ethyl trial, dose 25 g/ha, 9 days): 52%

COC(=O)CSc1cc(/N=c2\sc(=O)n3n2CCCC3)c(F)cc1Cl [Fluthiacet-methyl, fluthiacet-methyl]
Effect in % (leaf abscission) (Table 1 fluthiacet-methyl trial, dose 0.,5 g/ha, 4 days): 5%
Effect in % (leaf abscission) (Table 1 fluthiacet-methyl trial, dose 0.,5 g/ha, 5 days): 14%
Effect in % (leaf abscission) (Table 1 fluthiacet-methyl trial, dose 0.25 g/ha, 4 days): 0%
Effect in % (leaf abscission) (Table 1 fluthiacet-methyl trial, dose 0.25 g/ha, 5 days): 0%

CCOC(=O)C(Cl)Cc1cc(-n2nc(C)n(C(F)F)c2=O)c(F)cc1Cl (centres unmarked) [Carfentrazone-ethyl, carfentrazone-ethyl]
Effect in % (leaf abscission) (Table 3.1 carfentrazone-ethyl trial, dose 25 g/ha, 10 days): 0%
Effect in % (leaf abscission) (Table 3.1 carfentrazone-ethyl trial, dose 25 g/ha, 20 days): 5%
Effect in % (leaf abscission) (Table 3.2 carfentrazone-ethyl trial, dose 1.5 g/ha, 6 days): 29%
Effect in % (leaf abscission) (Table 3.2 carfentrazone-ethyl trial, dose 1.5 g/ha, 9 days): 29%
